Laboratory results published in patent US12622965B2, “Therapeutical tools and methods using temperature-sensitive receptors for treating blindness” (FRIEDRICH MIESCHER INSTITUTE FOR BIOMEDICAL RESEARCH, priority 2020, dated 2026).

Key:
[1] = tested on: human retina (ONL, INL, GCL cells); test: two-photon acousto-optic calcium imaging of NIR responses in ex vivo human retina; format: cell-based
Text: High-speed three-dimensional acousto-optic calcium imaging of neuronal network activity permits observation of response propagation from photoreceptors through the retina. To detect NIR light driven responses in the human retina, the inventors deposited nanorods (Abs 915 nm) over the photoreceptor side of the retina and performed two-photon calcium imaging of individual cells in the outer nuclear layer (ONL), which hosts photoreceptors, the inner nuclear layer (INL), which hosts horizontal, bipolar and amacrine cells, and the ganglion cell layer (GCL) which hosts ganglion and amacrine cells. To record calcium signals, the fluorescent calcium dye Oregon Green 488 BAPTA-1 (OGB-1) was electroporated into the cells. […] In cells of the INL and GCL layers, bidirectional changes in the calcium signal indicate activation of excitatory and inhibitory retinal pathways. More cells responded in the GCL than in the ONL, reflecting convergent retinal circuit organization (Chi Squared Test, P=0.0006; GCL, n=41 responding neurons, n=83 total neurons, 49.4%; ONL, n=16 responding photoreceptors, n=74 total photoreceptors, 21.6%). There was no significant difference in number of NIR light responding cells between INL and GCL (Chi Squared Test, P=0.89; INL, n=46 responding neurons, n=93 total neurons, 49.5%).
Human retinal tissue was obtained after corneal tissue harvest from adult multi-organ donors with no reported history of eye disease, n=2 eyes from n=2 donors. After cornea isolation, the iris, lens, and vitreous were removed and the retina was submerged in flowing Ames' medium (Sigma, A1420) saturated with 95% O2 and 5% CO2. […] Samples used for tissue culture were of mid-peripheral origin, midway between the fovea and the anterior retinal border. For organotypic retinal culture, 4×4 mm retinal pieces were isolated and placed photoreceptor-side-up on polycarbonate membranes inserts (Corning, 3412). The cultures were maintained at 37° C. and 5% CO2 in DMEM/F12 medium (Thermo Fisher Scientific), supplemented with 0.1% bovine serum albumin (BSA), 10 μM O-acetyl-L-carnitine hydrochloride, 1 mM fumaric acid, 0.5 mM galactose, 1 mM glucose, 0.5 mM glycine, 10 mM HEPES, 0.05 mM mannose, 13 mM sodium bicarbonate, 3 mM taurine, 0.1 mM putrescine dihydrochloride, 0.35 μM retinol, 0.3 μM retinyl acetate, 0.2 μM (+)-α-tocopherol, 0.5 mM ascorbic acid, 0.05 μM sodium selenite, 0.02 μM hydrocortisone, 0.02 μM progesterone, 1 μM insulin, 0.003 μM 3,3′,5-triiodo-L-thyronine, 2 000 U penicillin and 2 mg streptomycin (Sigma). For AAV infection, 40 μL of virus was applied per retinal explant 4-5 days after plating. The culture medium was renewed every 48 hours. Light responses were recorded from samples 8 weeks post-mortem. […]

[2] = tested on: adult human ex vivo retinal explants; test: AAV transduction of adult human ex vivo retinal explants, quantified by immunofluorescence; format: cell-based; details: CAG promoter, mean±s.d
Experimental: Finally, the inventors provided NIR sensitivity to in a blind human retina. They targeted rTRPV1 to adult human ex vivo retinal explants, kept alive in culture for eight weeks post mortem. Cultured retinas lose light sensitivity after 16 hours. Using a CAG promoter, a density of 2477±889 rTRPV1 positive photoreceptors was achieved per mm^2 of explant tissue (mean±s.d). 94.5±4.2% of rTRPV1 positive cells were photoreceptors (n=2583 rTRPV1 positive cells mm^−2, n=2477 rTRPV1 positive photoreceptors mm^−2, mean±s.d).
Human retinal tissue was obtained after corneal tissue harvest from adult multi-organ donors with no reported history of eye disease, n=2 eyes from n=2 donors. […] Light responses were recorded from samples 8 weeks post-mortem. […]
A Zeiss LSM 700 laser scanning confocal microscope was used to acquire images of antibody stained cells and tissues with an EC Plan-Neofluar 40×/1.30 oil M27 objective at up to 4 excitation laser lines according to secondary antibody specification. Expression was assessed from 1024×1024 pixel images in a z-stack with 0.75 μm steps. […] AAV transduction was quantified from retinal wholemounts. […] Quantification was performed separately for outer nuclear layer, inner nuclear layer and ganglion cell layer.

[3] = nanorods (Abs 915 nm) on photoreceptor side, 8 weeks post-mortem

TRPV1.465-6x-His: rat TRPV1 channel with 6x-His epitope tag inserted in the first extracellular loop after amino acid 465; delivered by AAV
NIR light responding cells in the GCL [1, 3]: 49.4% | NIR light responding cells in the INL [1, 3]: 49.5% | NIR light responding photoreceptors in the ONL [1, 3]: 21.6% | NIR light-evoked activation in retinal explants ([1]; rTRPV1 transduced explants (n=3), nanorods (Abs 915 nm)): NIR light-evoked activation could be detected | density of rTRPV1 positive photoreceptors ([2]; explant tissue): 2477±889 per mm^2 | rTRPV1 positive cells that were photoreceptors [2]: 94.5±4.2%
